Test results as given in patent US20150018361A1, “ANTI-TUMOR ACTIVITY OF REDUCED FOLATES LIKE METHYLENE-TETRAHYDROFOLATE” (ISOFOL MEDICAL AB, priority 2012, published 2015).
“Also recorded” adds a separate entry of the source.

Assays:
[1] = in the body; no species or test given; cited from earlier work
[2] = system: HCT116 colorectal carcinoma xenograft; experiment: Anti-tumoral efficacy in the HCT116 colorectal carcinoma xenograft model (tumor volume); type: in vivo, female NCr nu/nu mice; conditions: intraperitoneal, 45 mg/kg or 1.7 mg/kg qd x 21, both high and low dose
Experimental: Purpose: To determine the anti-tumoral efficacy of [6R]-methylene-THF in the HCT116 colorectal carcinoma xenograft model. The HCT116 colorectal carcinoma cell line is sensitive to 5-FU and its analog capecitabine.
(§1) Study design: A total of 30 female NCr nu/nu mice (10 per group) at the age of 8-12 weeks were injected with 5×10^6 HCT116 tumor cells in 0% Matrigel sc in flank. When the tumors reached an average size of […] they were administered with intraperitoneal injections of vehicle or [6R]-methylene-THF (Modufolin®), according to the schedule in table 1. Animals were monitored individually. The endpoint of the experiment was when a tumor weight of 1300 mm3 or 65 days was reached, whichever came first. Responders could be followed longer. When the endpoint was reached, the animals were euthanized. Body weight (bw) (g) and tumor volume (mm3) was measured on days 1, 2 (bw only), 3 (bw only), 4, 5 (bw only), 7, 11, 14, 18, 21, 25, 28, 32, 35, 39, 42, 49, 53, 56, 60 and 63.

[3] = Body weight development / tolerability in the HCT116 xenograft study; type: in vivo, female NCr nu/nu mice; conditions: intraperitoneal
Experimental: as §1
Body weight gives an indication on how severe the side effects of the treatment are, poor development of body weight indicating more adverse side effects.

| Structure (SMILES) | half life [1] | anti-tumor activity (mean tumor volume over time compared to control) [2] | effect on animal weight ([3]; high-dose (45 mg/kg, qd x 21)) | body weight development compared to the vehicle group ([3]; qd x 21, both dose groups overall) | effect on animal weight ([3]; low-dose (1.7 mg/kg, qd x 21)) |
| --- | --- | --- | --- | --- | --- |
| Nc1nc2c(c(=O)[nH]1)NC(CNc1ccc(C(=O)N[C@@H](CCC(=O)O)C(=O)O)cc1)CN2 (stereo partly shown) [THF, tetrahydrofolic acid] | approximately 30 min | – | – | – | – |
| Nc1nc2c(c(=O)[nH]1)N1CN(c3ccc(C(=O)N[C@@H](CCC(=O)O)C(=O)O)cc3)C[C@H]1CN2 [[6R]-methylene-THF, [6R]-5,10-methylenetetrahydrofolic acid] | – | marked influence on tumor volume; also recorded: intrinsic antitumor activity | in line with the vehicle group | slightly positive body weight development | positive effect on animal weight |
| CN1c2c(nc(N)[nH]c2=O)NCC1CNc1ccc(C(=O)N[C@@H](CCC(=O)O)C(=O)O)cc1 (stereo partly shown) [methyl-THF, 5-methyl-tetrahydrofolic acid] | approximately 5 hours | – | – | – | – |
| Nc1nc2c(c(=O)[nH]1)N1CN(c3ccc(C(=O)N[C@@H](CCC(=O)O)C(=O)O)cc3)CC1CN2 (stereo partly shown) [methylene-THF, 5,10-methylene-tetrahydrofolic acid] | approximately 20 min | – | – | – | – |
